{"source": "patent US8309144B2", "about": "“Use of a cruciferous protein hydrolysate as a depigmentation agent or for a cosmetic and/or pharmaceutical composition” (ISP Investments Inc., priority 2004, dated 2012)", "test_system": "melanin in the epidermis of ex vivo skin", "experiment": "Whitening effect on ex vivo skin, Fontana-Masson staining with image analysis of luminosity histograms (Example 5)", "format": "cell-based, human", "protocol": "Comparative studies were conducted using 1% of a non fermented rapeseed peptide hydrolysate for 72 hours, or 1% arbutin, known for its whitening effect, or a combination of both on ex vivo skin.\nSkin biopsies are prepared as described in example 2. Four different conditions are tested: • Condition 1: control, no active ingredient is applied • Condition 2: Arbutin 1% is applied twice a day over a period of 72 hours • Condition 3: non fermented rapeseed extract is applied twice a day over a period of 72 hours • Condition 4: a combination of 1% of a non fermented rapeseed extract and 0.5% arbutin is applied twice a day over a period of 72 hours\nA quantitative evaluation of the presence of melanin in the epidermis of the skin samples is carried out histologically, under an optical microscope, using the Fontana-Masson staining method as described in example 2.\nTo confirm visual observations and quantify the results, image analysis was performed using several image processing steps and analysis of luminosity histograms.\nAll date were normalized to the length of the basal layer within a given histological section."}
{"smiles": "OC[C@H]1O[C@@H](Oc2ccc(O)cc2)[C@H](O)[C@@H](O)[C@@H]1O", "note": "[arbutin]", "values": [{"measurement": "decrease in melanin content (normalized integrated values of histograms)", "setting": "ex vivo skin, 1%, 72 hours", "value": 32, "unit": "%"}, {"measurement": "melanin content, visual observation (in words)", "setting": "ex vivo skin, 1%, 72 hours", "value": "significant decrease in melanin content"}, {"measurement": "% of decrease (melanin content vs control)", "setting": "ex vivo skin, applied twice a day over 72 hours, 1% (combination 1%/0.5%)", "value": "−31.8", "unit": "%"}, {"measurement": "Area under curve (luminosity histogram)", "setting": "ex vivo skin, applied twice a day over 72 hours, 1% (combination 1%/0.5%), control 54517", "value": 46247}, {"measurement": "Area/length", "setting": "normalized to length of basal layer, applied twice a day over 72 hours, control 66.78", "value": 45.53, "unit": "l/micron"}]}
